Measurements from PubChem BioAssay AID192 (DTP/NCI, 2004).
Where “and” joins values, the source holds several entries; their conditions need not be identical. Equal values may be shown once. Inconclusive results and toxic doses are left out. Rule for the calls: active = survival T/C of 150% or more; inactive = T/C below 125% in these data.

Tested on: BDF1 mice, B16 melanoma ip, median survival T/C
Test: NCI In Vivo Anticancer Drug Screen. Data for tumor model B16 Melanoma (intraperitoneal) in B6D2F1 (BDF1) mice
Conditions: endpoint: median survival time, higher = longer survival
Procedure: The antitumor activity of compounds was measured in mice bearing transplantable tumors. Survival or tumor size were measured and the results are expressed as the measurement made in the treated group (T) divided by the measurement made in the vehicle treated control group (C). The tumor model used in this assay is B16 Melanoma (intraperitoneal) in B6D2F1 (BDF1) mice

[1] = dose: 50.0 mg/kg/injection, schedule: Q01DX009 (ip), vehicle: saline
[2] = dose: 100.0 mg/kg/injection, schedule: Q01DX009 (ip), vehicle: saline
[3] = dose: 25.0 mg/kg/injection, schedule: Q01DX009 (ip), vehicle: Klucel (hydroxypropylcellulose) (HPC)
[4] = dose: 100.0 mg/kg/injection, schedule: Q01DX009 (ip), vehicle: saline with Tween-80
[5] = dose: 200.0 mg/kg/injection, schedule: Q01DX009 (ip), vehicle: saline with Tween-80
[6] = dose: 25.0 mg/kg/injection, schedule: Q01DX009 (ip), vehicle: saline with Tween-80
[7] = dose: 100.0 mg/kg/injection, schedule: Q01DX009 (ip), vehicle: Klucel (hydroxypropylcellulose) (HPC)
[8] = dose: 200.0 mg/kg/injection, schedule: Q01DX009 (ip), vehicle: Klucel (hydroxypropylcellulose) (HPC)
[9] = dose: 50.0 mg/kg/injection, schedule: Q01DX009 (ip), vehicle: Klucel (hydroxypropylcellulose) (HPC)
[10] = dose: 12.5 mg/kg/injection, schedule: Q01DX009 (ip), vehicle: saline
[11] = dose: 25.0 mg/kg/injection, schedule: Q01DX009 (ip), vehicle: saline

Measured: T/C

Cc1cc2c(c3oc(C4(C)OC4C4OC4C)cc(=O)c13)C(=O)c1c(O)c(C3CC(C)(N(C)C)C(O)C(C)O3)cc(C3CC(N(C)C)C(O)C(C)O3)c1C2=O (stereo not drawn)
inactive: dose: 1.3 micrograms/kg/injection, schedule: Q01DX009 (ip), vehicle: clinical formulation 108 % of control | dose: 1.3 micrograms/kg/injection, schedule: Q01DX009 (ip), vehicle: saline 97 % of control | dose: 2.5 micrograms/kg/injection, schedule: Q01DX009 (ip), vehicle: clinical formulation 117 % of control | dose: 2.5 micrograms/kg/injection, schedule: Q01DX009 (ip), vehicle: saline 108 % of control | dose: 4.0 micrograms/kg/injection, schedule: Q01DX009 (ip), vehicle: Klucel (hydroxypropylcellulose) (HPC) 119 % of control | dose: 5.0 micrograms/kg/injection, schedule: Q01DX009 (ip), vehicle: Klucel (hydroxypropylcellulose) (HPC) 122 % of control | dose: 5.0 micrograms/kg/injection, schedule: Q01DX009 (ip), vehicle: saline 107 % of control and 108 % of control | dose: 8.0 micrograms/kg/injection, schedule: Q01DX009 (ip), vehicle: Klucel (hydroxypropylcellulose) (HPC) 110 % of control | dose: 10.0 micrograms/kg/injection, schedule: Q01DX009 (ip), vehicle: clinical formulation 113 % of control | dose: 10.0 micrograms/kg/injection, schedule: Q01DX009 (ip), vehicle: saline 101 % of control and 123 % of control | dose: 20.0 micrograms/kg/injection, schedule: Q01DX009 (ip), vehicle: saline 124 % of control | dose: 40.0 micrograms/kg/injection, schedule: Q01DX009 (ip), vehicle: saline 114 % of control

NC(N)=NOCC[C@@H](N)C(=O)O
inactive: [1] 105 % of control | [2] 101 % of control | dose: 200.0 mg/kg/injection, schedule: Q01DX009 (ip), vehicle: saline 100 % of control | dose: 400.0 mg/kg/injection, schedule: Q01DX009 (ip), vehicle: saline 99 % of control

COc1cc(O)c2c(c1)C(=O)c1cc3c(c(O)c1C2=O)CC(OC)C(C)(O)C3=O (stereo not drawn)
inactive: dose: 25.0 mg/kg/injection, schedule: Q01DX009 (ip), vehicle: other 104 % of control | dose: 50.0 mg/kg/injection, schedule: Q01DX009 (ip), vehicle: other 91 % of control | dose: 100.0 mg/kg/injection, schedule: Q01DX009 (ip), vehicle: other 91 % of control

CC(=O)OC12CC[N+]3(C)CCCCC3C1=Nc1ccccc12 (stereo not drawn)
inactive: dose: 12.5 mg/kg/injection, schedule: Q01DX009 (ip), vehicle: Klucel (hydroxypropylcellulose) (HPC) 109 % of control | [3] 104 % of control

COC(=O)CCC(=O)N1CCOCC1
inactive: [4] 95 % of control | dose: 100.0 mg/kg/injection, schedule: Q04DX003 (ip), vehicle: saline with Tween-80 100 % of control | [5] 93 % of control | dose: 200.0 mg/kg/injection, schedule: Q04DX003 (ip), vehicle: saline with Tween-80 102 % of control | dose: 400.0 mg/kg/injection, schedule: Q01DX009 (ip), vehicle: saline with Tween-80 97 % of control | dose: 400.0 mg/kg/injection, schedule: Q04DX003 (ip), vehicle: saline with Tween-80 102 % of control

C[Si](C)(C)O/C=C1\CCCCC1=O
inactive: dose: 6.25 mg/kg/injection, schedule: Q01DX009 (ip), vehicle: saline with Tween-80 96 % of control | dose: 12.5 mg/kg/injection, schedule: Q01DX009 (ip), vehicle: saline with Tween-80 99 % of control | [6] 92 % of control | dose: 50.0 mg/kg/injection, schedule: Q01DX009 (ip), vehicle: saline with Tween-80 94 % of control | [4] 88 % of control | [5] 94 % of control

CNC(=O)Nc1ccc(C)c(Cl)c1
inactive: [7] 105 % of control | [8] 91 % of control

O=C(NC(CSC(c1ccccc1)c1ccccc1)C(=O)O)OCc1ccccc1 (stereo not drawn)
inactive: [3] 100 % of control | [9] 100 % of control

CN(C)CCCN1c2ccccc2S(=O)c2ccc(Cl)cc21 (stereo not drawn)
inactive: [10] 97 % of control | [11] 100 % of control | [1] 108 % of control | [2] 94 % of control

CC1CCC2(C(=O)O)CCC3(C)C(=CCC4C5(C)CCC(O)C(C)(C)C5CCC43C)C2C1C (stereo not drawn)
inactive: [7] 98 % of control | [8] 91 % of control

CCN1Cc2ccc(O)cc2C1
inactive: [11] 98 % of control | [1] 100 % of control | [2] 97 % of control

CCCCC(CC)COC(=O)/C=C/C(=O)OCC(CC)CCCC (stereo not drawn)
inactive: [8] 90 % of control | dose: 400.0 mg/kg/injection, schedule: Q01DX009 (ip), vehicle: Klucel (hydroxypropylcellulose) (HPC) 87 % of control

CC(C)c1ccc(O)c(O)c1
inactive: [10] 95 % of control | [6] 104 % of control | [11] 100 % of control | [1] 96 % of control

c1ccc(Oc2ccccn2)cc1
inactive: [9] 111 % of control | [7] 117 % of control | [8] 123 % of control

CNC(=O)Nc1cccc(C(F)(F)F)c1
inactive: [3] 99 % of control | [9] 100 % of control | [7] 90 % of control and 112 % of control
